Where a SMILES comes first, the peptide text is derived from it.
Assays:
[1] = test system: rat hippocampal organotypic cultures; assay: LTP and LTD in rat hippocampal organotypic cultures; format: cell-based; conditions: in vitro
rats [2] = assay: Porsolt test (Forced Swim Test), systemic dosing; format: in vivo, rat; conditions: for effect on floating times in the Porsolt test: Sprague Dawley rats, 20-60 min post dosing
Protocol: For the evaluation of the antidepressant actions of GLYX-13, the effect of GLYX-13 in the Porsolt test of depression was examined in rats. Porsolt testing is the most commonly used test for assessment of depression in animal model, Porsolt testing, also known as Forced Swim Test, is based on a behavioral trait that is sensitive to changes in affective state. During this test, the animal is placed in a tank (18 cm diameter×45 cm height) filled to 30 cm with 22-23° C. water. After placing the animal in the tank, the amount of time for which the rat is immobile when it stops struggling is measured. Porsolt test is based on the fact that antidepressants increase the latency to immobility and decrease the time for which the rat is immobile. […] The interpretation of the Porsolt test is that the antidepressants reinstate active coping mechanisms and decrease the passive immobility evoked by stress.
In order to evaluate the effectiveness of GLYX-13 as antidepressant, three month old FBNF1 rats were separated into two groups of 9 animals. The first group of rats was intravenously injected with 10 mg/kg GLYX-13 and the second group of animals was intravenously injected with PBS vehicle (1 ml/kg) in a blind manner via chronic subdural femoral vein access ports. Both groups of animals were injected 10 to 15 minutes before the start of testing.
For Porsolt testing, animals were given a 15 minute pre-test habituation in the tank to induce learned helplessness on day one. Following this, on the subsequent day, the animals were injected with GLYX-13 or vehicle 10-15 minutes before being placed into the tank for a 5 minute test session. After placing the animals in the tank, the amount of time for which each animal is immobile when it stops struggling (Mean Immobility Time) was measured. Decrease in Mean Immobility Time is a measure of the effectiveness of the antidepressant.
A second experiment was performed in the same manner as Example 1, except that 2-3 month Sprague-Dawley rats were used, and treated with either intravenous (1, 3, 10, 32 mg/kg), subcutaneous (1, 3, 10, 32, 56, 100 mg/kg) injections of GLYX-13 or saline vehicle (1 mg/ml) 15 (i,v.) or 20 (s.c.) min before the start of the final 5 min test session. Ketamine (10 mg/kg i.p.) was given 60 min befbre the start of testing (Garcia et al., (2008) Prog Neuropsychopharmacol Biol Psychiatry, 32, 140-144).
To determine whether the antidepressant effect of GLYX-13 was specific to the sequence of the GLXY-13 peptide, mean time (sec) spent floating in the Porsolt test was determined in groups of 12 three-month old Sprague Dawley rats administered with GLYX-13 (TPPT-NH2 (SEQ ID NO: 13); 3 mg/kg , i.v. tail vein), a scrambled peptide (PTPT-NH3(SEQ ID NO: 19); 3 mg/kg i.v. tail vein), or 0.9% saline vehicle (1 ml/kg, i.v. tail vein). Administration occurred 60 min before the 5 min testing session. Animals received a 15 min training swim session one day before dosing.
To evaluate whether the anti-depressive and anxiolytic effects of GLYX-13 would persist beyond a few hours, rats were tested in the Porsolt test and the Open Field test, described above. Groups of 10-11 three-month old Sprague-Dawley rats were pretreated with GLYX-13 (3 mg/kg i.v.), ketamine (10 mg/kg i.v.) or saline vehicle injection (1 mg/ml i.v. tail vein) 96 hrs before the start of testing. Animals received a single 15 min. training swim session one day before dosing. Animals were tested 96 hrs post dosing in the Porsolt test without any testing during the intervening period. Open field testing was conducted without pre-habituation 1 day after Porsolt testing (i.e. 120 hrs post dosing). Mean(±SEM) time (sec.) spent floating in the Porsolt test, time spent in the center compartment (sec.), and line crosses in the open field test were determined.
The Porsolt test adapted for use in rats was performed as above. […]

GluR1 = assay: Total and phosphoserine-845 GluR1 by Western blot in medial prefrontal cortex; format: in vivo, rat; conditions: 24 hrs after GLYX-13 3 mg/kg IV or ketamine 10 mg/kg IV
From the text: Total and Phosphoserine-9 glycogen synthase kinase 3β (GSK-3β) were quantified by ELISA according to the manufacturer's instructions (catalog numbers ADI-900-144 and ADI-900-123A, Assay Designs, USA). Total and phosphoserine-845 GluR1 were quantified by Western blot.

rats [3] = assay: Prepulse inhibition; format: in vivo, rat; conditions: Sprague-Dawley rats; GLYX-13 10 mg/kg IV tested 15 min post injection; ketamine 10 mg/kg IP tested immediately
Protocol: Animals were given intravenous injections of GLYX-13 (10 mg/kg) or saline via chronic indwelling femoral vein cannulae and tested 15 min post injection, or intraperitoneal ketamine (10 mg/kg) or saline vehicle (1 mL/kg IV or IP respectively) and tested immediately post injection for prepulse inhibition.

rats [4] = assay: Drug discrimination in rats trained to discriminate ketamine from saline
Protocol: Testing was conducted as described previously (Nicholson K L & Balster R L (2009) The discriminative stimulus effects of N-methyl-D-aspartate glycine-site ligands in NMDA antagonist-trained rats. Psychopharmacology (Berl) 203(2):441-451). Adult male Sprague Dawley rats were trained to discriminate ketamine (10 mg/kg IP) from saline. Animals were then tested following various doses of GLYX-13 administration (3-156 mg/kg SC) and the percent of ketamine lever responding and rates of responding were recorded.

NMDA receptor = target: T1, NMDA receptor (Rattus norvegicus, UniProt P35439); assay: Pharmacologically isolated NMDAR EPSCs in hippocampal slices (CA1 pyramidal neurons); format: cell-based; conditions: NMDA receptor current, hippocampal slice assay; read-out: intrinsic activity relative to D-serine (full agonist)
T1 construct: from tissue; host or cells: rat hippocampal slices, CA1 pyramidal neurons
Protocol: Experiments were conducted on hippocampal slices from 14-18 day old Sprague-Dawley rats. Whole cell recordings were obtained from CA1 pyramidal neurons voltage clamped at −69 mV, in slices perfused with ACSF containing 0 mM [Mg2+] and 3 mM [Ca2+], plus 10 μM bicuculline and 20 μM CNQX to pharmacologically isolate NMDAR-dependent. EPSCs. Following bath applications of varying concentrations of GLYX-13 and D-serine, EPSCs were elicited by stimulating Schaffer collateral fibers with single electrical pulses (80 μs duration) once every 30 s.
Functional affinity, Kp, of GLYX-13 for the NMDAR was estimated using the equiactive concentration null method of Stephenson (Stephenson R. P. (1956) A modification of receptor theory. Br J Pharmacol Chemother 11(4):379-393) as exemplified by Kenakin (Kenakin T. P. (1997) Pharmacologic Analysis of Drug-Receptor Interaction (New York.)) In this analysis concentration-response curves are generated to full agonist, and to the full agonist in the presence of a set concentration of the partial agonist of interest (FIG. 18, Panel B). Equiactive concentrations arc read off the […] of each of the concentration-respouse curves and plotted as the concentration of full agonist [D-serine] alone and in the presence of partial agonist [GLYX-13] that produce equal effect.

C[C@@H](O)[C@H](N)C(=O)N1CCC[C@H]1C(=O)N1CCC[C@H]1C(=O)N[C@H](C(N)=O)[C@@H](C)O [GLYX-13, L-threonyl-L-prolyl-L-prolyl-L-threonine amide] (H-TPPT-NH2)
long-term depression (LTD) [1]: reducing | long-term potentiation (LTP) [1]: markedly elevate | activity in the Porsolt test (rats [2]; 10 mg/kg SC): active | effect on floating times in the Porsolt test (rats [2]; 3-10 mg/kg IV): significantly (P<0.05) reduced floating times | effect on floating times in the Porsolt test (rats [2]; 10-30 mg/kg SC): significantly (P<0.05) reduced floating times | onset of action (rats [2]; single dose, rats): within minutes | Phosphoserine-845 GluR1/total GluR1 ratio (GluR1): increased | prepulse inhibition, an indicator of dissociative effects (rats [3]): did not exhibit either of these effects | suppression of operant responding (rates of responding) (rats [4]; SC, 3-156 mg/kg): did not suppress operant responding at any dose | ketamine-like discriminative stimulus effects (percentage ketamine-lever responding) (rats [4]; SC, dose range 3-156 mg/kg): did not show any ketamine-like discriminative stimulus effects | therapeutic index (rats [4]; drug discrimination highest dose vs Porsolt active dose 10 mg/kg SC, printed as 170:10): ≥ 17 | effect in the drug discrimination assay (rats [4]; highest dose evaluated, 156 mg/kg SC): essentially without effect | Emax (NMDA receptor): 23%
